Reference: paper PMC11643494, “Structure–Activity Relationship Studies in a Series of 2-Aryloxy-N-(pyrimidin-5-yl)acetamide Inhibitors of SLACK Potassium Channels” (Molecules, 2024)

What was measured:
TASK-1 = molecular target: T1, TASK-1 (Homo sapiens, UniProt O14649); test: Tl+-flux assay in HEK-293 cells, TASK-1; assay type: cell-based; conditions: HEK293; 10 µM test compound; relative to control bepridil; read-out: Percent Inhibition ± SEM, TASK-1
T1 construct: expressed in transfected cells; host or cells: HEK293
Source text: (§1) Having executed our plan to prepare analogs across the identified regions of the chemotype (Figure 2), we identified two analogs for further profiling and evaluation. […] Desiring to add a second compound with some measure of structural differences, we also chose another submicromolar SLACK inhibitor 66 (VU0936154). Whereas 40 contains an ether linker and a halogenated phenyl group in the eastern region, […] contains an N-methyl linker and a phenyl group with a more polar cyano substituent. We first screened these analogs at 10 µM versus our in-house panel of ion channel targets using Tl^+-flux assays in HEK-293 cells expressing the human target of interest. […] Included in this set are Slo family members SLICK and two isoforms of Maxi-K, as well as several different K^+, Na^+, and Ca^2+ channels (Table 6). […] Of note was the excellent selectivity versus the broader panel of targets for both compounds, including versus the hERG channel.
(§2) Stably transfected monoclonal HEK293 cell lines expressing SLICK, Maxi-K α1/β3, Maxi-K α1/β4, CaV3.2, GIRK 1/2, KV2.1, KV7.2, NaV1.7, and TASK-1 were generated as previously described. […]
(§3) The Tl^+ flux assays were conducted as previously described, with modifications optimized for individual cell lines as described below. […] Cell plates were then loaded onto a Panoptic kinetic imaging plate reader (WaveFront Biosciences, Franklin, TN, USA). […]

Maxi-K α1/β3 = molecular target: T2, Maxi-K α1/β3 (Homo sapiens, UniProt Q12791); test: Tl+-flux assay in HEK-293 cells, Maxi-K α1/β3; assay type: cell-based; conditions: HEK293; 10 µM test compound; relative to control paxilline; read-out: Percent Inhibition ± SEM, Maxi-K α1/β3
T2 construct: expressed in transfected cells; host or cells: HEK293
Source text: as §1, §2, §3

T2 sequence (Q12791 whole entry): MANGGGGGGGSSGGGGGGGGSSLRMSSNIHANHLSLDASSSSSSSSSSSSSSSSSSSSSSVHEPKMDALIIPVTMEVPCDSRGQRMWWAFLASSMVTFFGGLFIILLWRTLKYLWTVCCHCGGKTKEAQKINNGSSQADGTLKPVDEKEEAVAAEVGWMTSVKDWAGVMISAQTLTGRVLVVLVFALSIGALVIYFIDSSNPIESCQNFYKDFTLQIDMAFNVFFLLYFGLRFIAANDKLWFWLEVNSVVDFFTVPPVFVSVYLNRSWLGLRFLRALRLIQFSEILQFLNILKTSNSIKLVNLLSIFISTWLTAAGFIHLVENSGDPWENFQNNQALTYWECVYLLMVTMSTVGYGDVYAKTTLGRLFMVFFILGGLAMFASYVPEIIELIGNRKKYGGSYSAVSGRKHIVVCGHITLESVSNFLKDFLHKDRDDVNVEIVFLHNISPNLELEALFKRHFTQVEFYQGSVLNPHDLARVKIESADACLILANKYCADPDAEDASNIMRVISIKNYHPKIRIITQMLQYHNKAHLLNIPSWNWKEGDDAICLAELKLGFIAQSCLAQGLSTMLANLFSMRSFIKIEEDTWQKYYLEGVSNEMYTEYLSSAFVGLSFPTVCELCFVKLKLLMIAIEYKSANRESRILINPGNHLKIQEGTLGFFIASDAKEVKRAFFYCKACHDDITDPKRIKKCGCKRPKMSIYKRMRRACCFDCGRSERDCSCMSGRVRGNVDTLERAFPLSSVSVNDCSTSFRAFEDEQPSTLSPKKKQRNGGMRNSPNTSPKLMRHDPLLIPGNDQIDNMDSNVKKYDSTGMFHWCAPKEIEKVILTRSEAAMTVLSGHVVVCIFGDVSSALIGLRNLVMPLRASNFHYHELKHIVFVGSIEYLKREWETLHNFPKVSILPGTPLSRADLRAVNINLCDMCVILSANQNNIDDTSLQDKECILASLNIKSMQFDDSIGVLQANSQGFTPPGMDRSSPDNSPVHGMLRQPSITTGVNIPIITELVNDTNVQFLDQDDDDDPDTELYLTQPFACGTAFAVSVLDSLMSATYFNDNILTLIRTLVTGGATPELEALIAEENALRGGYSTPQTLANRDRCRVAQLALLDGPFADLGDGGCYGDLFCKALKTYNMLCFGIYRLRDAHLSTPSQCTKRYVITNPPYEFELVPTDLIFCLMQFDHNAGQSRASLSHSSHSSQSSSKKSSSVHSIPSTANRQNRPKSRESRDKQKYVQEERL
T2 sequence (Q9NPA1 whole entry partner): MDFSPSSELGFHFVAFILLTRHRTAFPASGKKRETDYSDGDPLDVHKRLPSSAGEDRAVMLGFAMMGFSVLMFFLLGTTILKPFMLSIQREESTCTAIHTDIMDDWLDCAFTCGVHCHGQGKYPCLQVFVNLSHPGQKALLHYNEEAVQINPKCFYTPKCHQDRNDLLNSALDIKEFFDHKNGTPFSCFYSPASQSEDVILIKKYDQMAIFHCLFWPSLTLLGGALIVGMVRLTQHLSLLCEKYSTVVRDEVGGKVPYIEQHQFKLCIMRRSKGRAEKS
T1 sequence (O14649 whole entry): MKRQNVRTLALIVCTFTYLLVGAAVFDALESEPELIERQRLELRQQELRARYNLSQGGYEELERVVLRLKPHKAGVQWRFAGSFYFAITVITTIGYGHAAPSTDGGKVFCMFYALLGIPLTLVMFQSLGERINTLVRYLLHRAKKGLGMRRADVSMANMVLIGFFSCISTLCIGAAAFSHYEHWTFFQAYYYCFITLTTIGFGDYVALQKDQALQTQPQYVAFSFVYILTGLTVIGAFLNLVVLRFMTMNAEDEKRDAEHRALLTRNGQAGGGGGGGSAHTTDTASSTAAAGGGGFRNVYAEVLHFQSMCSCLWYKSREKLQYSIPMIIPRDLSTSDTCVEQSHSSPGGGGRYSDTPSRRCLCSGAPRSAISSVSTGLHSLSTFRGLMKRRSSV

With `CC(C)(Oc1ccc(Cl)cc1)C(=O)Nc1cnc(Oc2c(F)cccc2F)nc1` [Analog 40] as the compound, how does the inhibition at 10 µM (TASK-1) read?
Its inhibition at 10 µM is 24 ± 3.7%.

And the inhibition at 10 µM (Maxi-K α1/β3)?
The inhibition at 10 µM was 27 ± 11%.

What does the source list for `CN(c1ccc(C#N)cc1)c1ncc(NC(=O)C(C)(C)Oc2ccc(Cl)cc2)cn1` [Analog 66]?
inhibition at 10 µM (TASK-1): 18 ± 2%; inhibition at 10 µM (Maxi-K α1/β3): 30 ± 2.6%
